Measurements from PMC3425516 (PLoS ONE, 2012).
Where “and” joins values, the source holds several entries; their conditions need not be identical. Equal entries are not always repeated.

Tests used:
DU-145 = test: NCI-60 cell lines screening; assay type: cell-based, human; settings: DU-145, Prostate Cancer panel
Method: (§1) The NCI-60 cancer cell lines screening was conducted by the NCI’s Developmental Therapeutics Program (DTP; http://www.dtp.nci.nih.gov/branches/btb/ivclsp.html).

IGROV1 = test: NCI-60 cell lines screening; assay type: cell-based, human; settings: IGROV1, Ovarian Cancer panel
Method: as §1

MAD-MB-231/ATCC = test: NCI-60 cell lines screening; assay type: cell-based, human; settings: Breast Cancer panel
Method: as §1

MCF-7 = test: NCI-60 cell lines screening; assay type: cell-based, human; settings: MCF-7, Breast Cancer panel
Method: as §1

OVCAR-3 = test: NCI-60 cell lines screening; assay type: cell-based, human; settings: OVCAR-3, Ovarian Cancer panel
Method: as §1

SF-539 = test: NCI-60 cell lines screening; assay type: cell-based, human; settings: SF-539, CNS Cancer panel
Method: as §1

SK-OV-3 = test: NCI-60 cell lines screening; assay type: cell-based, human; settings: SK-OV-3, Ovarian Cancer panel
Method: as §1

HCT116 cells [1] = test: Sulforhodamine B cell growth assay; assay type: cell-based; settings: Homo sapiens, HCT-116; HCT116, SRB assay, 48 h, mean±S.E.M.; read-out: GI50
Method: (§2) HCT116, MDAMB231 and NCI-ADR cells were seeded in 96-well plates in medium with 5% fetal bovine serum overnight. Cells were fixed with 10% trichloroacetic representing cell population at the time of drug treatment (T 0). […] Excess Sulforhodamine B was washed away by 1% acetic acid and dye-containing cells were lysed with 10 mmol/L Trizma base. […] By measuring time zero (T 0), control growth (C), and cell growth in the presence of the drug (Tx), the percentage growth was calculated. Percentage growth inhibition was calculated as 100-[(Tx–T 0)/(C-T 0)]×100.

MDAMB231 cells = test: Sulforhodamine B cell growth assay; assay type: cell-based; settings: Homo sapiens, MDA-MB-231; MDAMB231, SRB assay, 48 h
Method: as §2

NCI-ADR cells = test: Sulforhodamine B cell growth assay; assay type: cell-based; settings: Homo sapiens, NCI/ADR-RES, SRB assay, 48 h
Method: as §2

HUVEC = test: Crystal violet cell growth assay; assay type: cell-based, human
Method: The HUVECs were seeded into 96-well culture plates (5000 cells/well) in quadruplicate. After 24 h incubation, cells were fixed with 0.1% crystal violet/20% methanol, representing cell population at the time of drug treatment (T 0). […] After 48 h incubation at 37°C, cells were stained with 0.1% crystal violet/20% methanol for 10 minutes and washed for 3 times.

recombinant human HDAC2 = recombinant human HDAC2 (Homo sapiens, UniProt Q92769); test: HDAC biochemical assay (fluorogenic); settings: Class I, mean±SE
Text: (§3) The HDACs in vitro activities of recombinant human HDAC 1, 2, 4, 6 and 8 (BPS Biosciences) were detected by fluorigenic release of 7-amino-4-methylcoumarin from substrate upon deacetylase enzymatic activity.

[2] = tested on: HDACs in HeLa nuclear extracts; test: HeLa nuclear extract HDAC activity assay; assay type: biochemical
Method: The HeLa nuclear extract HDAC activity was measured by using the HDAC Fluorescent Activity Assay Kit (BioVision, CA, USA) according to manufacturer’s instructions. Briefly, the HDAC fluorometric substrate and assay buffer were added to HeLa nuclear extracts in a 96-well format and incubated at 37°C for 30 min. The reaction was stopped by adding lysine developer, and the mixture was incubated for another 30 min at 37°C. Additional negative controls included incubation without the nuclear extract, without the substrate, or without both. TSA at 1 µM served as the positive control.

[3] = tested on: total HDAC activity in HCT116 cells; test: Total HDACs enzymatic activity assay in treated cells; assay type: cell-based, human; settings: HCT116 cells treated 24 h
Method: Total HDACs enzyme activity was determined using the Boc-Lys(Ac)-AMC fluorometric HDAC activity assay kit (BioVision, Mountain View, CA, USA).

HCT116 cells [4] = test: Flow cytometry cell cycle / sub-G1 analysis; assay type: cell-based, human
Method: After centrifugation, cells were incubated in 0.1 mol/L phosphate-citric acid buffer [0.2 mol/L NaHPO4, 0.1 mol/L citric acid (pH 7.8)] for 20 min at room temperature. Then, the cells were centrifuged and resuspended with 0.5 mL PI solution containing Triton X-100 (0.1%, v/v), RNase (100 µg/mL), and PI (80 µg/mL). DNA content was analyzed with the FACScan and CellQuest software (Becton Dickinson).

HCT116 cells [5] = test: Western blot histone H3 and α-tubulin acetylation; assay type: cell-based, human; settings: 24 h
Method: For total lysate, cells were lysed with the 120 µL ice-cold lysis buffer [10 mmol/L Tris-HCl (pH 7.4), 150 mmol/L NaCl, 1 mmol/L EGTA, 1 mmol/L phenylmethylsulfonyl fluoride, 10 µg/mL aprotinin, 10 µg/mL leupeptin, 1 mM sodium orthovandate, 1 mM NaF, and 1% Triton X-100]. Cell lysates were centrifuged at 13,000 rpm for 30 min. For Western blot analysis, the amount of protein (40 µg) was separated by electrophoresis in a 10% or 15% polyacrylamide gel and transferred to a polyvinylidene difluoride (PVDF) membrane. After 1 h incubation at room temperature in PBS/5% nonfat milk, the membrane was washed with PBS/0.1% and incubated with the indicated antibodies at 4°C overnight. After washings with PBS/0.1% Tween 20, the corresponding secondary antibodies were applied to the membranes for 1 h at room temperature. The membranes were then washed with PBS/0.1% Tween 20 and the detection of signal was done with an enhanced chemiluminescence detection kit (Amersham, Buckinghamshire, UK).

recombinant human HDAC8 = recombinant human HDAC8 (Homo sapiens, UniProt Q9BY41); test: biochemical
Text: as §3

recombinant human HDAC4 = recombinant human HDAC4 (Homo sapiens, UniProt P56524); test: biochemical
Text: as §3

recombinant human HDAC6 = recombinant human HDAC6 (Homo sapiens, UniProt Q9UBN7); test: biochemical
Text: as §3

[6] = Homo sapiens, read-out: LC50 (the source's name)

recombinant human HDAC4, sequence (P56524 whole entry): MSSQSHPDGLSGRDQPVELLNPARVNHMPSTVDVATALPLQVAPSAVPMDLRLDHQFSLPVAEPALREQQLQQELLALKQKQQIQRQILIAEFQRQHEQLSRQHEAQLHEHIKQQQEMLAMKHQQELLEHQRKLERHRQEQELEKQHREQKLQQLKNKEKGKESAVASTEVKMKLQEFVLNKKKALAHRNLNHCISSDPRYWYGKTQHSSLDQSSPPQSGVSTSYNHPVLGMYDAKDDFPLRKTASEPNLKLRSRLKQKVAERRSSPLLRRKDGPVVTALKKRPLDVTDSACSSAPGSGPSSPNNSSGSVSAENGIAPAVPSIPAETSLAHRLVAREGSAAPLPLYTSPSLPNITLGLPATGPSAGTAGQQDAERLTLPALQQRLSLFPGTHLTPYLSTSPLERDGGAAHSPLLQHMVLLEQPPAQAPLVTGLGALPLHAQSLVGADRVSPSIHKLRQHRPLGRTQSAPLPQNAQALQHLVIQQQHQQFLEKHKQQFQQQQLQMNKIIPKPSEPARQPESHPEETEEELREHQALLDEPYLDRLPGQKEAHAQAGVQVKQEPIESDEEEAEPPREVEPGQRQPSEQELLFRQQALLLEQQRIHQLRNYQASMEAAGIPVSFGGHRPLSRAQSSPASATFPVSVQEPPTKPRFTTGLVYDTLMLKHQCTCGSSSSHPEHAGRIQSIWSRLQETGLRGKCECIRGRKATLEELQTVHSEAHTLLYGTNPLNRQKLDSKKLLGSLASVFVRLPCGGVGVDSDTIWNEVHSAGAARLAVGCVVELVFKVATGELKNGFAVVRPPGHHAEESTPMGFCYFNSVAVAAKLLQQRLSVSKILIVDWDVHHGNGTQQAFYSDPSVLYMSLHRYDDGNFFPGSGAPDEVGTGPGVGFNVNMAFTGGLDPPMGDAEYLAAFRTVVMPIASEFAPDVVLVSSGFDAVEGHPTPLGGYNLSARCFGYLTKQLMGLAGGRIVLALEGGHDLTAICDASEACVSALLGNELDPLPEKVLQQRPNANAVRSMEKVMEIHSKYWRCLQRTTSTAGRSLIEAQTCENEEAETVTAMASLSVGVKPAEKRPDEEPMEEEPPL
recombinant human HDAC2, sequence (Q92769 whole entry): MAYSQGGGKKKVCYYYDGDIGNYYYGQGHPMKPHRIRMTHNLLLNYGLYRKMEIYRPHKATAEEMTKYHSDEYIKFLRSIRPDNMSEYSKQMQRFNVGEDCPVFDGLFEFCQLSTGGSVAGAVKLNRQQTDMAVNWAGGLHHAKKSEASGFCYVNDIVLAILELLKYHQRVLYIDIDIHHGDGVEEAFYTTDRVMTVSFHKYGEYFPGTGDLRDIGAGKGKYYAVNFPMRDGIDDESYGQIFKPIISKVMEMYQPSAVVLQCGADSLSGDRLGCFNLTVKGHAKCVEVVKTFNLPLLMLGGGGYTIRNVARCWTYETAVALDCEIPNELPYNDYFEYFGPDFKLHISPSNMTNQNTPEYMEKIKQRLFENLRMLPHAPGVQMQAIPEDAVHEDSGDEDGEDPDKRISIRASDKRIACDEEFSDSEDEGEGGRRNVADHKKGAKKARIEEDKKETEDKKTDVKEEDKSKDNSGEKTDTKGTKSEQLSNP
recombinant human HDAC6, sequence (Q9UBN7 whole entry): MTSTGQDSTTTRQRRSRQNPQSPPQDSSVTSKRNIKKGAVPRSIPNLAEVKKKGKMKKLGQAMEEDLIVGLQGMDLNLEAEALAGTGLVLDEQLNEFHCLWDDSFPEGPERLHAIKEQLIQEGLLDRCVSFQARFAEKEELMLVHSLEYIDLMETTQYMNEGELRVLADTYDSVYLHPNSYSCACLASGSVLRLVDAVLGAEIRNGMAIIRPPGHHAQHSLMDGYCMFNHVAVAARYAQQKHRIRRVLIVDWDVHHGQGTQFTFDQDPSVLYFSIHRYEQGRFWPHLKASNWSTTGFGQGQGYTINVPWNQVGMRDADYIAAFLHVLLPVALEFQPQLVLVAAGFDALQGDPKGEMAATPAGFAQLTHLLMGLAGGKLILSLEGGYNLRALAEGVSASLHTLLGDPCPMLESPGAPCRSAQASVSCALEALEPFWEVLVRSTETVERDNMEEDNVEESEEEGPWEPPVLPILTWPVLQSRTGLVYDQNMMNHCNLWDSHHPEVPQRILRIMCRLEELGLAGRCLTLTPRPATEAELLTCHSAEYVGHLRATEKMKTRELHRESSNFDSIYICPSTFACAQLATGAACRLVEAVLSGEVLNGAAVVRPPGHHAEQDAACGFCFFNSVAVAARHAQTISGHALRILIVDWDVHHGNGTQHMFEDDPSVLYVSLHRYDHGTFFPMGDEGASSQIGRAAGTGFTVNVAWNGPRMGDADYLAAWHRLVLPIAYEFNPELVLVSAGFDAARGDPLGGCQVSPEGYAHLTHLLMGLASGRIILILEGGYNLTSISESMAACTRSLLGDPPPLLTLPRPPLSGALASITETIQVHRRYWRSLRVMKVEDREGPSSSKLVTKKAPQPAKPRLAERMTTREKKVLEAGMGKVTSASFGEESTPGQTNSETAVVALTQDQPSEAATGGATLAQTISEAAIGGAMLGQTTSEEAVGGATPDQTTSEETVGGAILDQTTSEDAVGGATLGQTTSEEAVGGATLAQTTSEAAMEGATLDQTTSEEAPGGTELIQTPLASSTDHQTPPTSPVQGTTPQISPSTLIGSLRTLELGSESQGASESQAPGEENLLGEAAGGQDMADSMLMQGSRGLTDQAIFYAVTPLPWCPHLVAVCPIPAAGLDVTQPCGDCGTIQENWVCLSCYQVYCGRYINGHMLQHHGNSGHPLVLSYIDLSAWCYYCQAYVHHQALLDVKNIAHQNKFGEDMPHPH
recombinant human HDAC8, sequence (Q9BY41 whole entry): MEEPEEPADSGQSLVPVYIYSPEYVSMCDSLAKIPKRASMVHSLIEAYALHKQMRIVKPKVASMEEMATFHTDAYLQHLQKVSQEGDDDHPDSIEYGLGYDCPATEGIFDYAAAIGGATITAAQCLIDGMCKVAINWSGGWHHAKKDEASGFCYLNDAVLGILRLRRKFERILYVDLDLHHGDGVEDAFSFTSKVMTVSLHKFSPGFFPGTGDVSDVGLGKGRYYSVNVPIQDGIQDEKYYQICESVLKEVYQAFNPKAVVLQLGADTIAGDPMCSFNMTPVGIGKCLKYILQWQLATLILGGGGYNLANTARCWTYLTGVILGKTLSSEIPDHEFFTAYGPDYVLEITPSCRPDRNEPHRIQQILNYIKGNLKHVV

O=C(C=Cc1ccc2c(c1)CCN2S(=O)(=O)c1ccccc1)NO [MPT0E028, 3-(1-benzenesulfonyl-2,3-dihydro-1H-indol-5-yl)-N-hydroxy-acrylamide]
TGI (DU-145): 1920 nM | GI50 (DU-145; Homo sapiens): 179 nM | CC50 (DU-145; [6]): > 100000 nM | GI50 (IGROV1; Homo sapiens, IGROV-1): 183 nM | CC50 (IGROV1; Homo sapiens, IGROV-1, read-out: LC50 (the source's name)): 2390 nM | TGI (IGROV1): 533 nM | TGI (MAD-MB-231/ATCC): 822 nM | GI50 (MAD-MB-231/ATCC; Homo sapiens): 241 nM | CC50 (MAD-MB-231/ATCC; [6]): 20400 nM | GI50 (MCF-7; Homo sapiens, MCF7): 230 nM | CC50 (MCF-7; Homo sapiens, MCF7, read-out: LC50 (the source's name)): 62700 nM | TGI (MCF-7): 10500 nM | GI50 (OVCAR-3; Homo sapiens): 233 nM | CC50 (OVCAR-3; [6]): 7300 nM | TGI (OVCAR-3): 933 nM | GI50 (SF-539; Homo sapiens): 241 nM | CC50 (SF-539; [6]): 3390 nM | TGI (SF-539): 1150 nM | GI50 (SK-OV-3; Homo sapiens): 190 nM | CC50 (SK-OV-3; [6]): 4260 nM | TGI (SK-OV-3): 601 nM | GI50 (HCT116 cells [1]): 90 ± 4 nM | GI50 (MDAMB231 cells): 190 ± 40 nM | GI50 (NCI-ADR cells): 140 ± 20 nM | GI50 (HUVEC; HUVEC (human normal cells), crystal violet assay, 48 h): 3570 ± 450 nM | folds less sensitive against normal cells (safety margin) (HUVEC; HUVEC versus cancer cells): 20–40 folds | IC50 (recombinant human HDAC2): 106 ± 23 nM | times more potent than SAHA in HDAC activity inhibition ([2]; HeLa and HCT116 cells, relative to SAHA): 9–30 times and 10–30 times | IC50 ([2]; HeLa nuclear extract): 11.1 nM | IC50 [3]: 4430 ± 500 nM | sub-G1 population (flow cytometry) (HCT116 cells [4]): increased the number of cells in the sub-G1 phase of the cell cycle | histone H3 acetylation (western blot) (HCT116 cells [5]): induced stronger hyperacetylation of histone H3 than that of SAHA | IC50 (recombinant human HDAC8): 2530 ± 315 nM | IC50 (recombinant human HDAC4): > 10000 nM | IC50 (recombinant human HDAC6): 29.5 ± 6.4 nM
